Source: patent US20250144249A1, “METHODS USING SURFACE-EXPRESSIBLE ACTIVATABLE EPITOPES TO LOCALIZE AND/OR TREAT DISEASED CELLS” (EARLI Inc., priority 2022, published 2025)
Entries after “also recorded” stand apart in the source; their conditions may differ.

B1: NP249: engineered DLL3 construct, DLL3 residues 27-492 with CD73 SP/GPI-anchor motif; SEQ ID NO: 39, 46 (protein)
chain: MCPRAARAPATLLLALGAVLWPAAGAAGVFELQIHSFGPGPGPGAPRSPCSARLPCRLFFRVCLKPGLSEEAAESPCALGAALSARGPVYTEQPGAPAPDLPLPDGLLQVPFRDAWPGTFSFIIETWREELGDQIGGPAWSLLARVAGRRRLAAGGPWARDIQRAGAWELRFSYRARCEPPAVGTACTRLCRPRSAPSRCGPGLRPCAPLEDECEAPLVCRAGCSPEHGFCEQPGECRCLEGWTGPLCTVPVSTSSCLSPRGPSSATTGCLVPGPGPCDGNPCANGGSCSETPRSFECTCPRGFYGLRCEVSGVTCADGPCFNGGLCVGGADPDSAYICHCPPGFQGSNCEKRVDRCSLQPCRNGGLCLDLGHALRCRCRAGFAGPRCEHDLDDCAGRACANGGTCVEGGGAHRCSCALGFGGRDCRERADPCAARPCAHGGRCYAHFSGLVCACAPGYMGARCEFPVHPDGASALPAAPPGLRPGDPQRYLGGSSTGSHCHGSFSLIFLSLWAVIFVLYQ
B2: NP245: engineered DLL3 construct, DLL3 residues 27-492 with PD-L1 signal peptide/transmembrane helix; SEQ ID NO: 35 (protein)
chain: MRIFAVFIFMTYWHLLNAAGVFELQIHSFGPGPGPGAPRSPCSARLPCRLFFRVCLKPGLSEEAAESPCALGAALSARGPVYTEQPGAPAPDLPLPDGLLQVPFRDAWPGTFSFIIETWREELGDQIGGPAWSLLARVAGRRRLAAGGPWARDIQRAGAWELRFSYRARCEPPAVGTACTRLCRPRSAPSRCGPGLRPCAPLEDECEAPLVCRAGCSPEHGFCEQPGECRCLEGWTGPLCTVPVSTSSCLSPRGPSSATTGCLVPGPGPCDGNPCANGGSCSETPRSFECTCPRGFYGLRCEVSGVTCADGPCFNGGLCVGGADPDSAYICHCPPGFQGSNCEKRVDRCSLQPCRNGGLCLDLGHALRCRCRAGFAGPRCEHDLDDCAGRACANGGTCVEGGGAHRCSCALGFGGRDCRERADPCAARPCAHGGRCYAHFSGLVCACAPGYMGARCEFPVHPDGASALPAAPPGLRPGDPQRYLLPLAHPPNERTHLVILGAILLCLGVALTFIFRHMGGGSGGGSAYPYDVPDYAAYPYDVPDYA
B3: NP244: engineered DLL3 construct, DLL3 residues 27-492 with EGFR signal peptide/transmembrane helix; SEQ ID NO: 34 (protein)
chain: MRPSGTAGAALLALLAALCPASRAAGVFELQIHSFGPGPGPGAPRSPCSARLPCRLFFRVCLKPGLSEEAAESPCALGAALSARGPVYTEQPGAPAPDLPLPDGLLQVPFRDAWPGTFSFIIETWREELGDQIGGPAWSLLARVAGRRRLAAGGPWARDIQRAGAWELRFSYRARCEPPAVGTACTRLCRPRSAPSRCGPGLRPCAPLEDECEAPLVCRAGCSPEHGFCEQPGECRCLEGWTGPLCTVPVSTSSCLSPRGPSSATTGCLVPGPGPCDGNPCANGGSCSETPRSFECTCPRGFYGLRCEVSGVTCADGPCFNGGLCVGGADPDSAYICHCPPGFQGSNCEKRVDRCSLQPCRNGGLCLDLGHALRCRCRAGFAGPRCEHDLDDCAGRACANGGTCVEGGGAHRCSCALGFGGRDCRERADPCAARPCAHGGRCYAHFSGLVCACAPGYMGARCEFPVHPDGASALPAAPPGLRPGDPQRYLSIATGMVGALLLLLVVALGIGLFMRRRHIVRKHMGGGSGGGSAYPYDVPDYAAYPYDVPDYA

Tests used:
Format in all cases: cell-based, human
H1299 cells [1] = experiment: FACS detection of engineered DLL3 on the surface of transfected H1299 cells (Example 4); conditions: for expression level of DLL3 on the cell surface / percent positive (DLL3-positive cells): H1299 cells transfected with construct; for expression level of DLL3 on the cell surface: fluorescently labeled anti-DLL3 antibody, FACS, compared to wild-type DLL3 (NP116, NP127)
Description: Each of the six engineered DLL3 constructs ([…]) and two different wild-type DLL3 constructs (NP116 and NP127) was separately introduced to human non-small cell lung carcinoma, H1299 cells (also known as NCI-H1299 or CRL-5803) by transfection to analyze the expression of engineered DLL3. H1299 cells were then stained with fluorescently labeled anti-DLL3 antibodies and analyzed by fluorescence-activated cell sorting (FACS) to detect DLL3 expression. Panels A2-G2 in FIG. 8B, and NP116, NP127, NP244-NP249, and NP268 in FIG. 8C show the amount of DLL3 expressed on the cell surface corresponding to panels A1-G1 in FIG. 8A. […] Specifically, NP249 and NP247 increased percent positive to ˜80% and ˜94%, respectively (FIG. 8C).

H1299 cells [2] = experiment: in vitro cell killing assay with anti-DLL3-PBD (Example 4); conditions: H1299 cells transfected with construct, treated with anti-DLL3-PBD; compared to NP116 or NP127; FIG. 8D
Experimental: Next, in vitro cell killing assay was performed to determine the ability of anti-DLL3 antibodies conjugated with a cytotoxic payload (anti-DLL3-PBD) to induce cytotoxicity. The anti-DLL3-PBD was introduced to H1299 cells transfected with NP247 (G1 in FIG. 8A), NP249 (D1 in FIG. 8A), NP116 (wild-type control), or NP127 (wild-type control).

H1299 cells [3] = experiment: number of copies of anti-DLL3 antibody bound to DLL3 on the cell surface (quantification bead standard curve)
Experimental: Next, a physical number of copies of anti-DLL3 antibody bound to DLL3 expressed on the cell surface was assessed. H1299 cells were seeded into 96 well plate. 24 hours after seeding, H1299 cells were transfected with nanoplasmid vectors comprising NP116 (wild-type control), NP247 (with a single DLL3 epitope in the CD8 scaffold), or NP298 (with two DLL3 epitopes in the CD8 scaffold) via lipofectamine according to the manufacture's protocols. H1299 cells were then stained with fluorescently labeled anti-DLL3 antibodies for FACS analysis. Cells and commercially available beads for epitope quantification were then stained with an anti-DLL3 secondary antibody conjugated to Alexa Fluor® 647 (AF647). H1299 cells were subsequently analyzed on a BD Biosciences FACSAria IIu (FIGS. 10A-10C). The number of epitopes were calculated by comparing the cell's expression to the quantification bead standard curve (FIGS. 10B-10C).
Each of NP247 and NP298 constructs and wild-type DLL3 construct (NP116) was separately introduced to H1299 cells by transfection to analyze the expression of engineered DLL3. […] H1299 cells stably expressing wild-type or engineered DLL3 and commercially available beads for epitope quantification were then stained with an anti-DLL3 secondary antibody conjugated to Alexa Fluor® 647 (AF647). H1299 cells were subsequently analyzed on a BD Biosciences FACSAria IIu. […]

H1299 cells [4] = experiment: cell killing assay, CellTiter Glo 2.0 (Example 7); conditions: treated with anti-DLL3-PBD, 72 hours, compared to NP116, FIG. 13B
Experimental: Next, H1299 cells stably expressing WT or engineered DLL3 were seeded 5,000 cells/well in 96 well plates. 24 hours after seeding, H1299 cells were treated with a titration of either an unconjugated anti-DLL3 antibody or an anti-DLL3 antibody conjugated to a PBD toxin (anti-DLL3-PBD). 72 hours after antibody treatment, cell viability was assessed using the CellTiter Glo 2.0 assay kit and analyzed on a Promega GloMax Navigator.

| Molecule | expression level of DLL3 on the cell surface (H1299 cells [1]) | percent positive (DLL3-positive cells) (H1299 cells [1]; FIG. 8C) | mean fluorescence intensity (H1299 cells [1]; compared to DLL3 wild-type or the DLL3 stable cell line, FIG. 8C) | loss of viability of cells expressing the construct (H1299 cells [2]) | increase in copy number of anti-DLL3 antibodies compared to cells expressing NP116 (H1299 cells [3]; Example 5, H1299 cells transfected with nanoplasmid vectors, FIG. 10C) | increase in copy number of anti-DLL3 antibodies compared to cells expressing NP116 (H1299 cells [3]; Example 7, FIG. 13A) | loss of viability / susceptibility to cell death of cells expressing the construct (H1299 cells [4]) |
| --- | --- | --- | --- | --- | --- | --- | --- |
| NP246: engineered DLL3 construct, DLL3 residues 27-492, CD8a SP/CD28 transmembrane helix; SEQ ID NO: 36 | increased the expression level of DLL3 | – | – | – | – | – | – |
| NP247: engineered DLL3 construct, DLL3 residues 27-254, CD8a hinge, CD28 transmembrane helix; SEQ ID NO: 37 | increased the expression level of DLL3 | ~94% | significantly higher mean fluorescence intensity | substantial loss in viability; also recorded: substantial loss of viability | 13 fold | 21 fold | may be more susceptible to cell death; also recorded: substantial loss of viability |
| B1 | increased the expression level of DLL3 | ~80% | – | substantial loss in viability; also recorded: substantial loss of viability | – | – | – |
| B2 | increased the expression level of DLL3 | – | – | – | – | – | – |
| B3 | did not increase the expression level of DLL3 | – | – | – | – | – | – |
